# Columns and labels:
# [1] = Hydroxyl (HO•) free radical scavenging assay (competition with DMSO)
# Source text: The hydroxyl (HO^•) free radical is considered as the most toxic and reactive radical among the ROS, leading to cellular or protein damage, membrane destruction, and even to cellular death when encountered in excess concentration. In this context, the evaluation of the hydroxyl radical scavenging activity of the coumarin analogues was essential. Hydroxyl radicals are mainly produced by the Haber–Weiss reaction in the presence of iron or copper ions. In this protocol, iron-EDTA solution, which catalyzes the autooxidation of ascorbic acid, was used as the hydroxyl radical generation system. In general, the hydroxyl radicals formed oxidize the DMSO to form formaldehyde. The reaction involves the initial interaction of DMSO with the hydroxyl radicals to give methyl radicals, with the final product being formaldehyde, which is determined by Nash method. The intensity of the yellow solution formed was measured at 412 nm against a reagent blank.
# For the evaluation of hydroxyl radical scavenging ability, the protocol described by Kontogiorgis et al. was used. In short, each sample was tested in quadruplicate (A, B, C, D). For A and B, 10 μL of coumarin analogs diluted in DMSO (100 mM) were added; for C and D were the respective blanks. Standards (containing DMSO solution) and blanks were all prepared in a similar manner; to the latter an equal amount (10 µL) of solvent was added instead of the tested analogues. According to the protocol described by Klein et al., standard solutions of EDTA, FeCl3, ascorbic acid, and buffer solution (pH 7.4) were also added to each of the tested mixtures. All mixtures were incubated at 37 °C for 30 min, and then 1 mL of Nash solution and […] of CCl3COOH solution were added. After a 10min incubation at 60 °C to allow the formation of the yellow mixture, the absorbance was measured at […].
# The results were calculated as performance percentages in relation to the respective standards and blanks according to the following Equation (4):(4) % Scavenging ability= Mean OD(A+B)−Mean OD(C+D)/Mean OD(A+B)
# [2] = IAM chromatography (IAM.PC.DD.2 column) and estimated human oral absorption; type: in vitro ADME; conditions: for %HOA estimated human oral absorption: Equation (1) from logkw and physicochemical properties; for logkw (IAM retention factor): pH 7.40, IAM.PC.DD.2, intercept at pure aqueous phase
# Experimental: The immobilized artificial membrane (IAM) chromatographic behavior of the 25 novel coumarin derivatives was studied. IAM stationary phases consisting of monolayers of phospholipids (e.g., phosphatidylcholine, PC) immobilized on a propylamine–silica support can simulate interactions of chemicals with cell membranes.
# Using an IAM.PC.DD2 column (Regis Technologies) as the stationary phase with PBS as the mobile phase at pH = 7.40, and a flow rate of 3 mL/min in the presence of acetonitrile fractions (C%) of 10%, 15%, 20%, 25%, and 30%, a logkC% value was obtained via the retention time for each concentration of CH3CN. Retention factors were then used to plot logkC% as a function of acetonitrile fraction. The intercept of the linear regression corresponds to the logkw, corresponding to pure aqueous phase.
# (1) % HOA=100/1+10^−(2.17+0.88*logkw−0.006*MW−0.83*A−0.53*F^*++1.18*F^*−)
# (§1) The physicochemical and biomimetic properties of the new coumarin analogues were studied using liquid chromatography (HPLC) in 220–230 nm Two types of chromatographic columns were used: (i) immobilized artificial membrane (IAM) ([…].PC.DD.2, Regis Technologies) column and (ii) human serum albumin (HSA) (CHIRAL PAK) column.
# (§2) The training set consisted of 25 neutral and slightly acidic compounds. Their IAM retention factors were measured at pH 7.40 on a IAM.PC.DD.2 column. The mobile phase consisted of acetonitrile solvent (CH3CN) in various concentrations (10%, 15%, 20%, 25%, 30%) and a flow rate of 3 mL/min was selected. Their HSA retention factors were measured at pH 7.00 on HSA column. The mobile phase consisted of acetonitrile solvent (CH3CN) in 10% concentration and a flow rate of 1 mL/min was selected.
# (§3) The different pH values (7.00 for HSA and 7.40 for IAM) were measured with an electronic pH meter MP125 and were achieved by preparing suitable buffers of phosphates and chlorides (0.12 g KH2PO4, 0.72 g Na2HPO4·2H2O, 4.00 g NaCl and 0.10 g KCl). Sodium citrate solution was used to determine the dead time, which was deducted from the results at the end of measurements. The elution time of each coumarin analogue was measured at least three times. Retention times were converted into logk values, which represent the logarithm of the retention indexes, using Equation (8). (8) logk=log(tr−t0/t0) where tr is the retention time of the coumarin derivative and t0 is the dead time.
# [3] = target: T1, human serum albumin (HSA) (Homo sapiens, UniProt P02768); test: HSA chromatography and estimated plasma protein binding; type: in vitro ADME; conditions: for fraction unbound: human, immobilized human serum albumin (HSA) column, Equation (2) from logk10, pH 7.00, read-out: %PPB estimated plasma protein binding (converted); for logk10 (HSA retention factor): pH 7.00, 10% acetonitrile
# T1 construct: purchased CHIRAL PAK
# T1 sequence (P02768 25-609): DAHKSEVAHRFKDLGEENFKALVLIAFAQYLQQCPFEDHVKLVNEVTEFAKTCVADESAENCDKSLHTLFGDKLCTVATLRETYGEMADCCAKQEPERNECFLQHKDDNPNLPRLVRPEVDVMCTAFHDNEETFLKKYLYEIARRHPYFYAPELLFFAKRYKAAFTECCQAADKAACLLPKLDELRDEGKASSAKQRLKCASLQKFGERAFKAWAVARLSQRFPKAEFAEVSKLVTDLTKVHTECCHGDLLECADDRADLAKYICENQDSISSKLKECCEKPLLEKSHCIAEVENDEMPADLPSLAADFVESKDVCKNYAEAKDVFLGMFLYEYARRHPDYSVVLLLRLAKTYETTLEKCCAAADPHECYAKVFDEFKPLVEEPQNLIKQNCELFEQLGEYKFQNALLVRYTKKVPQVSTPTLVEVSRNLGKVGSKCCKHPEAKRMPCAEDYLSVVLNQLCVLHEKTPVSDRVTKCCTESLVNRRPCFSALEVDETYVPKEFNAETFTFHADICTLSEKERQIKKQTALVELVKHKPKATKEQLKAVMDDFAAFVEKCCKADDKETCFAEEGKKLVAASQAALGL
# Experimental: The novel coumarin derivatives were also studied using the immobilized protein column HSA. An HSA chromatographic column provides estimates on the binding affinities of chemicals to human serum albumin, which is the most abundant plasma protein and is related to drug efficacy, drug—drug pharmacokinetic interactions, and drug safety. HSA binding can be considered to represent almost the total plasma protein binding of a drug.
# Retention factors on the HSA stationary phase were measured using as eluent PBS at pH = 7.00 and a flow rate of 1 mL/min in the presence of 10% acetonitrile.
# (2) % PPB=101∗10^logk10/1+10^logk10
# as §1, §2, §3
Structure (SMILES),HO^• % (100 μΜ) scavenging [1] [%],%HOA estimated human oral absorption [2] [%],logkw (IAM retention factor) [2],fraction unbound [3],logk10 (HSA retention factor) [3]
"Cc1c(-c2ccccc2F)c(=O)oc2cccc(O)c12 [Compound 4d, 3-(2-fluorophenyl)-5-hydroxy-4-methyl-chromen-2-one]",21.9,100,4.69,0.152,0.72
"Cc1c(-c2cccc(F)c2)c(=O)oc2cccc(O)c12 [Compound 4e, 3-(3-fluorophenyl)-5-hydroxy-4-methyl-chromen-2-one]",100,99.9,3.23,0.034,1.34
"Cc1c(-c2ccc(F)cc2)c(=O)oc2cccc(O)c12 [Compound 4f, 3-(4-fluorophenyl)-5-hydroxy-4-methyl-chromen-2-one]",99.4,99.7,2.62,0.163,0.68
"Cc1c(-c2ccc(O)cc2)c(=O)oc2ccccc12 [Compound 4h, 3-(4-hydroxyphenyl)-4-methyl-chromen-2-one]",72.2,99.8,3.34,0.03,1.38
"Cc1c(-c2ccc(O)cc2)c(=O)oc2ccc(Br)cc12 [Compound 4i, 6-bromo-3-(4-hydroxyphenyl)-4-methyl-chromen-2-one]",100,99.9,3.23,0.043,1.26
"Cc1c(-c2ccc(O)cc2)c(=O)oc2ccc(Cl)cc12 [Compound 4j, 6-chloro-3-(4-hydroxyphenyl)-4-methyl-chromen-2-one]",100,99.5,3.41,0.196,0.59
